US20040224953A1, “Fused bicyclic-substituted amines as histamine-3 receptor ligands” (priority 2003, published 2004)

melting point: 70 to 72 °C
Compound: C[C@@H]1CCCN1CCc1nc2cc(-c3ccc(C#N)cc3)ccc2o1 [Example 24E, 4-{2-[2-(2-(R)-methyl-pyrrolidin-1-yl)-ethyl]-benzooxazol-5-yl}-benzonitrile]
